The values that follow come from US20240024488A1, “COMPOUNDS AND USES THEREOF” (Foghorn Therapeutics Inc., priority 2020, published 2024).

The target of assay [1] is T1, HiBit-BRG1 fusion protein (Homo sapiens, UniProt P51532).
T1 construct: expressed in transfected cells
Put plainly: HiBiT-BRG1 cell-based degradation assay (Nano-Glo HiBiT Lytic Detection, 24 h). As to conditions: HeLa cell line expressing HiBit-BRG1 and LgBit; for Dmax: read-out: BRG1 HiBit Degradation Maximum (%); for DC50: read-out: BRMG1 HiBit Degradation IC50. An outline of the steps: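 Percent degradation derived from lytic HiBiT signal, normalized to DMSO-treated cells and to cells given 2 μM of a known BRM/BRG1 degrader. The HeLa line stably expressed HiBit-BRG1 and LgBit; treatment lasted 24 h at 5000 cells per well.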

A further assay has as its target T2, HiBit-BRM fusion protein (Homo sapiens, UniProt P51531).
T2 construct: expressed in transfected cells
The assay is described as follows: HiBiT-BRM cell-based degradation assay (Nano-Glo HiBiT Lytic Detection, 24 h). As to conditions: HeLa cell line expressing HiBiT-BRM; for DC50: read-out: BRM HiBit Degradation IC50. Summed up:
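Luminescence from reconstituted NanoBiT luciferase in lysed HeLa HiBiT-BRM cells served as the measure of remaining BRM after 24 h treatment. Compounds were tested from 30 μM final downward in 3-fold steps. DMSO and 2 μM of a standard BRM/BRG1 degrader defined the scale limits.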

Where only a bound is given, the exact number is not on record here.

T1 sequence (P51532 whole entry, the tested form may be a part): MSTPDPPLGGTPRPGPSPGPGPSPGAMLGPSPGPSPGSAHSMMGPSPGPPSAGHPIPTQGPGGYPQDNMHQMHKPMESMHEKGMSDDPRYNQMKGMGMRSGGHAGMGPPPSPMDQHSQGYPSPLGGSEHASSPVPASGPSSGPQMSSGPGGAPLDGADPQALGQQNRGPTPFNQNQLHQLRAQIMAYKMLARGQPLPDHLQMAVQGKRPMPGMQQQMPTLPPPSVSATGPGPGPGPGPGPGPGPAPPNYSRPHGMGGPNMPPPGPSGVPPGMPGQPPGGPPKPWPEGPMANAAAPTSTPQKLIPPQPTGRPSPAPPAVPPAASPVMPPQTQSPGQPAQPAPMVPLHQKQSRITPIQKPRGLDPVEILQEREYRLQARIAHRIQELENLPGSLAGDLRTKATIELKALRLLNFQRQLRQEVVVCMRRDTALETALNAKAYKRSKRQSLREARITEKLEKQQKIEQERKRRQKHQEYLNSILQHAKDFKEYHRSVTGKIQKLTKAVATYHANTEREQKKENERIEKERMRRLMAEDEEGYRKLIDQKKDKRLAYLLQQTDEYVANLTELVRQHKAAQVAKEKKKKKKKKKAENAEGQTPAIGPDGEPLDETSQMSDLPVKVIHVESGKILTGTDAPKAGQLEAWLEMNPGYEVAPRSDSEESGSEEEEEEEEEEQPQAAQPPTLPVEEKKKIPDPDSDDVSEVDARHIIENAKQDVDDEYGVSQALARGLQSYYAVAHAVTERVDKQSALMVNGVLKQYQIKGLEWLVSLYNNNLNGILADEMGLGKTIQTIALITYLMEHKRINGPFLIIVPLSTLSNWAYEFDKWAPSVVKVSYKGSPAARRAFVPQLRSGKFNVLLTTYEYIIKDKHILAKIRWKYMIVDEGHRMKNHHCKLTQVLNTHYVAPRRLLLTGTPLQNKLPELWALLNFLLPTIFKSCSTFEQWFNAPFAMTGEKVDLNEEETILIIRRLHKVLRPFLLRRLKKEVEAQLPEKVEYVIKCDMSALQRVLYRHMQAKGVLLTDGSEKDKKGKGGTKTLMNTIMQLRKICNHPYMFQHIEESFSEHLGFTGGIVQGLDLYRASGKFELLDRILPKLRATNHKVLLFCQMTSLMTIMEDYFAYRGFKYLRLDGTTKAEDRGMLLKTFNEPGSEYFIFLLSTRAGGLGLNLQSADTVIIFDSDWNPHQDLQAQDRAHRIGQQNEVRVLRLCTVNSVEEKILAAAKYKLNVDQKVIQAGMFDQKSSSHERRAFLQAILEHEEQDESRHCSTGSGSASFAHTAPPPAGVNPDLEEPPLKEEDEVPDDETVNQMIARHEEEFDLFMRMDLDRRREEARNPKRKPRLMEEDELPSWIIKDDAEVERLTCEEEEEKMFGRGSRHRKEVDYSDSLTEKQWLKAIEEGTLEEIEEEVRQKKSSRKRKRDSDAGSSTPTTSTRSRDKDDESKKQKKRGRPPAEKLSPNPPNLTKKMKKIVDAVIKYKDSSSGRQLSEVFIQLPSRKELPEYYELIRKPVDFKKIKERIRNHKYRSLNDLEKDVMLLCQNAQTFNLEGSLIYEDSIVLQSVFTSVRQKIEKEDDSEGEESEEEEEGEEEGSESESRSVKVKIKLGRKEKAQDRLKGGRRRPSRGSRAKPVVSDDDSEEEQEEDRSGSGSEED
T2 sequence (P51531 whole entry, the tested form may be a part): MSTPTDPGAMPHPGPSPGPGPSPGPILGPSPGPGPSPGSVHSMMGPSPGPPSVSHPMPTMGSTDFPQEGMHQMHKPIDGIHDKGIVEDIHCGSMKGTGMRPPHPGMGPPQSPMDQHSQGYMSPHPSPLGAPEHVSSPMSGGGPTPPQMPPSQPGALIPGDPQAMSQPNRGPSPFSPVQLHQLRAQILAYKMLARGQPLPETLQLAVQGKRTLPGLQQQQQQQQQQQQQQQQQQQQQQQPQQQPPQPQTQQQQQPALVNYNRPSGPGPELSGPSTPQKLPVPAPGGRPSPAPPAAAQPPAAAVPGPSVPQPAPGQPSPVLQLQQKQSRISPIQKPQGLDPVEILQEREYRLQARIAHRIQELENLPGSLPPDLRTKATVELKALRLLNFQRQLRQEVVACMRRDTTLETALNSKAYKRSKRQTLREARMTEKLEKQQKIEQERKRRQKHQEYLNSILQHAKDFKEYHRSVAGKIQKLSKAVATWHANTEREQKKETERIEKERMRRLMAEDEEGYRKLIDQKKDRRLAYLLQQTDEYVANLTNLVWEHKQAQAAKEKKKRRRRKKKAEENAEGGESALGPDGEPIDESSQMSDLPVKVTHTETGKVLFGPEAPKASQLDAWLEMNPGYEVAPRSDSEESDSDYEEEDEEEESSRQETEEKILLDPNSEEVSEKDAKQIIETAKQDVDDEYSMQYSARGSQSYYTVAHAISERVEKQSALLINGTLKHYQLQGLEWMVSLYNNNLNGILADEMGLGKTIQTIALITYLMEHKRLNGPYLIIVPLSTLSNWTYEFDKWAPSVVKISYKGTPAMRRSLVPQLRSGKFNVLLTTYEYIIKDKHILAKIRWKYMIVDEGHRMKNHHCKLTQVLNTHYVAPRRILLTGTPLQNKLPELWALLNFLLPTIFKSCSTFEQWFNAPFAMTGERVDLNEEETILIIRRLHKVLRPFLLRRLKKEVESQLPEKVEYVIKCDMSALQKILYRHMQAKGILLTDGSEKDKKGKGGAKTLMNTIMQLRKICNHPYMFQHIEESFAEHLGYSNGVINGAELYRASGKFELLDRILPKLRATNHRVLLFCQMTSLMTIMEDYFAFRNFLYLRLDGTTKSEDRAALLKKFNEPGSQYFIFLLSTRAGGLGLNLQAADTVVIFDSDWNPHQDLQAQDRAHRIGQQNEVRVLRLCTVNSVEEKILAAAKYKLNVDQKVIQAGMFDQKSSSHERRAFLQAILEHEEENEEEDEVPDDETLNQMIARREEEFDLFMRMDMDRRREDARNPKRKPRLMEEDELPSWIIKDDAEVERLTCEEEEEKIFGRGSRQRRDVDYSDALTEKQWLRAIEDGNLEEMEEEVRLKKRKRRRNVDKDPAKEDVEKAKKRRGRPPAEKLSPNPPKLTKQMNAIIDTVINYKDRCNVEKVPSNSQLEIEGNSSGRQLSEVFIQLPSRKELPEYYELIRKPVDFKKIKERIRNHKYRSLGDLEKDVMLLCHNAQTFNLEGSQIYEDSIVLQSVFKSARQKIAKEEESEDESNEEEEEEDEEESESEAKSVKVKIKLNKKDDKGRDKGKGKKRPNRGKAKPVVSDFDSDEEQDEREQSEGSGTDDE

For the molecule `Cc1ncsc1-c1ccc([C@H](C)NC(=O)[C@@H]2C[C@@H](O)CN2C(=O)[C@@H](c2cc(OCCN3CCC(c4cc5cc(-c6ccccc6O)nnc5[nH]4)CC3)no2)C(C)C)cc1` (racemic) [Compound 51, (2S,4R)-4-hydroxy-1-((R)-2-(3-(2-(4-(3-(2-hydroxyphenyl)-7H-pyrrolo[2,3-c]pyridazin-6-yl)piperidin-1-yl)ethoxy)isoxazol-5-yl)-3-methylbutanoyl)-N-((S)-1-(4-(4-methylthiazol-5-yl)phenyl)ethyl)pyrrolidine-2-carboxamide], in assay [1], the Dmax is more than 50% and the DC50 is more than 100 nM. Further, at HiBit-BRM fusion protein, the “BRM HiBit Degradation Maximum (%)” value is on record as “A (“A” indicates maximum degradation ≥ 75%)” and the DC50 was more than 10 nM.
Consider `Cc1ncsc1-c1ccc([C@H](C)NC(=O)[C@@H]2C[C@@H](O)CN2C(=O)[C@@H](c2cc(N3CCC(N4CC5(Cc6cc(-c7ccccc7O)nnc6N5)C4)CC3)no2)C(C)C)cc1` (racemic) [Compound 98, (2S,4R)-4-hydroxy-1-((R)-2-(3-(4-(3′-(2-hydroxyphenyl)-5′,7′-dihydrospiro[azetidine-3,6′-pyrrolo[2,3-c]pyridazin]-1-yl)piperidin-1-yl)isoxazol-5-yl)-3-methylbutanoyl)-N-((S)-1-(4-(4-methylthiazol-5-yl)phenyl)ethyl)pyrrolidine-2-carboxamide], for which the Dmax in assay [1] is less than 50%. At HiBit-BRM fusion protein, the “BRM HiBit Degradation Maximum (%)” value is recorded as “A (“A” indicates maximum degradation ≥ 75%)” and the DC50 was more than 10 nM.
For the molecule `Cc1ncsc1-c1ccc(CNC(=O)[C@@H]2C[C@@H](O)CN2C(=O)[C@@H](NC(=O)CNC(=O)[C@@H]2CCc3[nH]c4nnc(-c5ccccc5O)cc4c3C2)C(C)(C)C)cc1` (single isomer, unassigned) [Compound 197], the Dmax in assay [1] is less than 50%. In addition, on HiBit-BRM fusion protein, the “BRM HiBit Degradation Maximum (%)” value is on record as “C (“C” indicates maximum degradation < 50%)”.
For the molecule `Cc1ncsc1-c1ccc([C@H](C)NC(=O)[C@@H]2C[C@@H](O)CN2C(=O)[C@@H](c2cc(OCCN3C[C@@H]4[C@H](C3)[C@H]4c3cc4cc(-c5ccccc5O)nnc4[nH]3)no2)C(C)C)cc1` (racemic) [Compound 308, (2S,4R)-4-hydroxy-1-((R)-2-(3-(2-((1R,5S,6R)-6-(3-(2-hydroxyphenyl)-7H-pyrrolo[2,3-c]pyridazin-6-yl)-3-azabicyclo[3.1.0]hexan-3-yl)ethoxy)isoxazol-5-yl)-3-methylbutanoyl)-N-((S)-1-(4-(4-methylthiazol-5-yl)phenyl)ethyl)pyrrolidine-2-carboxamide], in assay [1], the Dmax was more than 75% and the DC50 was more than 10 nM. For the same molecule, on HiBit-BRM fusion protein, the “BRM HiBit Degradation Maximum (%)” value is listed as “A (“A” indicates maximum degradation ≥ 75%)” and the DC50 is less than 10 nM.
Consider `Cc1ncsc1-c1ccc([C@H](C)NC(=O)[C@@H]2C[C@@H](O)CN2C(=O)[C@@H](c2cc(N3CCN(Cc4cc5cc(-c6ccccc6O)nnc5[nH]4)CC3)no2)C(C)C)cc1` (racemic) [Compound 199, (2S,4R)-4-hydroxy-1-((R)-2-(3-(4-((3-(2-hydroxyphenyl)-7H-pyrrolo[2,3-c]pyridazin-6-yl)methyl)piperazin-1-yl)isoxazol-5-yl)-3-methylbutanoyl)-N-((S)-1-(4-(4-methylthiazol-5-yl)phenyl)ethyl)pyrrolidine-2-carboxamide], for which the Dmax in assay [1] is less than 50%. Further, at HiBit-BRM fusion protein, the “BRM HiBit Degradation Maximum (%)” value is listed as “A (“A” indicates maximum degradation ≥ 75%)” and the DC50 was more than 10 nM.
For the molecule `Cc1ncsc1-c1ccc([C@H](C)NC(=O)[C@@H]2C[C@@H](O)CN2C(=O)[C@H](c2cc(N(C)CCN3CC(c4cc5cc(-c6ccccc6O)nnc5[nH]4)C3)no2)C(C)C)cc1` (racemic) [Compound 257, (2S,4R)-4-hydroxy-1-((S)-2-(3-((2-(3-(3-(2-hydroxyphenyl)-7H-pyrrolo[2,3-c]pyridazin-6-yl)azetidin-1-yl)ethyl)(methyl)amino)isoxazol-5-yl)-3-methylbutanoyl)-N-((S)-1-(4-(4-methylthiazol-5-yl)phenyl)ethyl)pyrrolidine-2-carboxamide], the Dmax in assay [1] was less than 50%. In addition, the “BRM HiBit Degradation Maximum (%)” value on HiBit-BRM fusion protein is given as “C (“C” indicates maximum degradation < 50%)”.
For `Cc1ncsc1-c1ccc([C@H](C)NC(=O)[C@@H]2C[C@@H](O)CN2C(=O)[C@@H](c2cc(OCCN3CCC[C@H]3c3c[nH]c4nnc(-c5ccccc5O)cc34)no2)C(C)C)cc1` (single isomer, unassigned) [Compound 227] the same measures were less than 50% and “C (“C” indicates maximum degradation < 50%)”.
As to `Cc1ncsc1-c1ccc([C@H](C)NC(=O)[C@@H]2C[C@@H](O)CN2C(=O)[C@@H](c2cc(OCC(=O)N(C)[C@H]3CCc4[nH]c5nnc(-c6ccccc6O)cc5c4C3)no2)C(C)C)cc1` [Compound 106, (2S,4R)-4-hydroxy-1-((R)-2-(3-(2-(((S)-3-(2-hydroxyphenyl)-6,7,8,9-tetrahydro-5H-pyridazino[3,4-b]indol-6-yl)(methyl)amino)-2-oxoethoxy)isoxazol-5-yl)-3-methylbutanoyl)-N-((S)-1-(4-(4-methylthiazol-5-yl)phenyl)ethyl)pyrrolidine-2-carboxamide], the Dmax in assay [1] is less than 50%. On HiBit-BRM fusion protein, the “BRM HiBit Degradation Maximum (%)” value is “A (“A” indicates maximum degradation ≥ 75%)” and the DC50 was more than 10 nM.
On the same counts, the results for `Cc1ncsc1-c1ccc([C@H](C)NC(=O)[C@@H]2C[C@@H](O)CN2C(=O)[C@@H](c2cc(OCCN3CC[C@H](c4cc5cc(-c6ccccc6O)nnc5[nH]4)C3)no2)C(C)C)cc1` (racemic) [Compound 280, (2S,4R)-4-hydroxy-1-((R)-2-(3-(2-((S)-3-(3-(2-hydroxyphenyl)-7H-pyrrolo[2,3-c]pyridazin-6-yl)pyrrolidin-1-yl)ethoxy)isoxazol-5-yl)-3-methylbutanoyl)-N-((S)-1-(4-(4-methylthiazol-5-yl)phenyl)ethyl)pyrrolidine-2-carboxamide] are less than 50%, “A (“A” indicates maximum degradation ≥ 75%)” and more than 10 nM.
Take `Cc1ncsc1-c1ccc([C@H](C)NC(=O)[C@@H]2C[C@@H](O)CN2C(=O)[C@H](c2cc(C3CN(C(=O)[C@@H]4CCc5[nH]c6nnc(-c7ccccc7O)cc6c5C4)C3)no2)C(C)C)cc1` (single isomer, unassigned) [Compound 154]: the Dmax in assay [1] is less than 50%. In addition, the “BRM HiBit Degradation Maximum (%)” value at HiBit-BRM fusion protein is reported as “C (“C” indicates maximum degradation < 50%)”.
On to `Cc1ncsc1-c1ccc([C@H](C)NC(=O)[C@@H]2C[C@@H](O)CN2C(=O)[C@@H](c2cc(OCCN3C[C@@H]4[C@H](C3)[C@H]4c3cc4cc(-c5cc(F)cc(Cl)c5O)nnc4[nH]3)no2)C(C)C)cc1` (racemic) [Compound 225, (2S,4R)-1-((R)-2-(3-(2-((1R,5S,6R)-6-(3-(3-chloro-5-fluoro-2-hydroxyphenyl)-7H-pyrrolo[2,3-c]pyridazin-6-yl)-3-azabicyclo[3.1.0]hexan-3-yl)ethoxy)isoxazol-5-yl)-3-methylbutanoyl)-4-hydroxy-N-((S)-1-(4-(4-methylthiazol-5-yl)phenyl)ethyl)pyrrolidine-2-carboxamide], for which the Dmax in assay [1] is less than 50%. Moreover, on HiBit-BRM fusion protein, the “BRM HiBit Degradation Maximum (%)” value was “A (“A” indicates maximum degradation ≥ 75%)” and the DC50 was more than 10 nM.
In the case of `Cc1ncsc1-c1ccc([C@H](C)NC(=O)[C@@H]2C[C@@H](O)CN2C(=O)[C@@H](c2cc(N3CCC(C(=O)N4CCc5[nH]c6nnc(-c7ccccc7O)cc6c5[C@H]4C)CC3)no2)C(C)C)cc1` (racemic) [Compound 82, (2S,4R)-4-hydroxy-1-((R)-2-(3-(4-((R)-3-(2-hydroxyphenyl)-5-methyl-6,7,8,9-tetrahydro-5H-pyrido[3′,4′:4,5]pyrrolo[2,3-c]pyridazine-6-carbonyl)piperidin-1-yl)isoxazol-5-yl)-3-methylbutanoyl)-N-((S)-1-(4-(4-methylthiazol-5-yl)phenyl)ethyl)pyrrolidine-2-carboxamide], in assay [1], the Dmax is more than 75% and the DC50 is more than 100 nM. At HiBit-BRM fusion protein, the “BRM HiBit Degradation Maximum (%)” value is “A (“A” indicates maximum degradation ≥ 75%)” and the DC50 was less than 10 nM.
`Cc1ncsc1-c1ccc([C@H](C)NC(=O)[C@@H]2C[C@@H](O)CN2C(=O)[C@@H](c2cc(N3C[C@H]4C[C@@H]3CN4C(=O)[C@H]3C[C@]4(Cc5cc(-c6ccccc6O)nnc5N4)C3)no2)C(C)C)cc1` (racemic) [Compound 76, (2S,4R)-4-hydroxy-1-((R)-2-(3-((1R,4R)-5-((1S,3r)-3′-(2-hydroxyphenyl)-5′,7′-dihydrospiro[cyclobutane-1,6′-pyrrolo[2,3-c]pyridazine]-3-carbonyl)-2,5-diazabicyclo[2.2.1]heptan-2-yl)isoxazol-5-yl)-3-methylbutanoyl)-N-((S)-1-(4-(4-methylthiazol-5-yl)phenyl)ethyl)pyrrolidine-2-carboxamide]: the Dmax in assay [1] was less than 50%. At HiBit-BRM fusion protein, the “BRM HiBit Degradation Maximum (%)” value was “A (“A” indicates maximum degradation ≥ 75%)” and the DC50 is more than 100 nM.
For `Cc1ncsc1-c1ccc([C@H](C)NC(=O)[C@@H]2C[C@@H](O)CN2C(=O)[C@@H](c2cc(OCCN(C)Cc3cc4cc(-c5ccccc5O)nnc4[nH]3)no2)C(C)C)cc1` (racemic) [Compound 222, (2S,4R)-4-hydroxy-1-((R)-2-(3-(2-(((3-(2-hydroxyphenyl)-7H-pyrrolo[2,3-c]pyridazin-6-yl)methyl)(methyl)amino)ethoxy)isoxazol-5-yl)-3-methylbutanoyl)-N-((S)-1-(4-(4-methylthiazol-5-yl)phenyl)ethyl)pyrrolidine-2-carboxamide] the same measures were less than 50%, “B (“B” indicates maximum degradation ≥ 50%)” and more than 10 nM.
